From BindingDB's records for doi:10.1007/s002100000312 (Biocentre Niederursel, 2000)

What was measured:
[1] = biological target: T1, P2X purinoceptor 7 (Homo sapiens, UniProt Q99572)
T1 sequence (Q99572 whole entry): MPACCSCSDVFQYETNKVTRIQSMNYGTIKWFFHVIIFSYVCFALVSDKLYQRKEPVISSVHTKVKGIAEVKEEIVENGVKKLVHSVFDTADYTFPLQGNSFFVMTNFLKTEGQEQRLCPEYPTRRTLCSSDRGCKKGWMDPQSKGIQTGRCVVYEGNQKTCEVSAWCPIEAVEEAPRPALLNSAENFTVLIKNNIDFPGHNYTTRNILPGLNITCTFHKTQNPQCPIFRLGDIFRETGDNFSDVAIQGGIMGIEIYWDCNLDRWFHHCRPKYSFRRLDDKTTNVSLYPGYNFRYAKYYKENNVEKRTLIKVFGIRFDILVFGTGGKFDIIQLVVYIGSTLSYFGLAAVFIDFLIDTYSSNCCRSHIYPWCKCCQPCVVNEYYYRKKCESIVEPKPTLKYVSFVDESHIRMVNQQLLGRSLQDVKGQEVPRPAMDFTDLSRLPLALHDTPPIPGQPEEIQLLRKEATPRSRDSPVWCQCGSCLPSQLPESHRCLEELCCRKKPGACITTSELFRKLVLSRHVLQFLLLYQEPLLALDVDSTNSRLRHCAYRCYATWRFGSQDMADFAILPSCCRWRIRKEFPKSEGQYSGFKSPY

[2] = biological target: T2, P2X purinoceptor 3 (Rattus norvegicus, UniProt P49654)
T2 sequence (P49654 whole entry): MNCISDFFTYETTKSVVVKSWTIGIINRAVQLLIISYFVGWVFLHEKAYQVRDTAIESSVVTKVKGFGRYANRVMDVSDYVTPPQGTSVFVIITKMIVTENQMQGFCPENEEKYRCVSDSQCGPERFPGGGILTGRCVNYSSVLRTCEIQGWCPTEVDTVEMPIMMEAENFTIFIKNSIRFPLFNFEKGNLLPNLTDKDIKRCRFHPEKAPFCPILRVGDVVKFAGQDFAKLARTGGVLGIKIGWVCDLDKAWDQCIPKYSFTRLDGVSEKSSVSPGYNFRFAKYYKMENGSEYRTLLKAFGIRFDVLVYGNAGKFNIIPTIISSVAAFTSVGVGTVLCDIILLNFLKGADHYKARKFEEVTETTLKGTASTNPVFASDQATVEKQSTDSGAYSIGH

[3] = biological target: T3, P2X purinoceptor 4 (Homo sapiens, UniProt Q99571)
T3 sequence (Q99571 whole entry): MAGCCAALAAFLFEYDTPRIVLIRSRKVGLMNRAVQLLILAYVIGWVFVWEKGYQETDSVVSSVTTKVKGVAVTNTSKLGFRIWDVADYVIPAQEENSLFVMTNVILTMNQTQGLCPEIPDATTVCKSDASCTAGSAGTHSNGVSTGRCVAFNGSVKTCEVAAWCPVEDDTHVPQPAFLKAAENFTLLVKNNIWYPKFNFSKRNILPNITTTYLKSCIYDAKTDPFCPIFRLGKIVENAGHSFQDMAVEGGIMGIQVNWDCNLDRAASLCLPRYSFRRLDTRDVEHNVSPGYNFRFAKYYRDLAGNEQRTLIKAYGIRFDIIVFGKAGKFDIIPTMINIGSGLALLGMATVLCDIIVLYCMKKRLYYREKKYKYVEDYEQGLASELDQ

[4] = biological target: T4, P2X purinoceptor 1 (Rattus norvegicus, UniProt P47824)
T4 sequence (P47824 whole entry): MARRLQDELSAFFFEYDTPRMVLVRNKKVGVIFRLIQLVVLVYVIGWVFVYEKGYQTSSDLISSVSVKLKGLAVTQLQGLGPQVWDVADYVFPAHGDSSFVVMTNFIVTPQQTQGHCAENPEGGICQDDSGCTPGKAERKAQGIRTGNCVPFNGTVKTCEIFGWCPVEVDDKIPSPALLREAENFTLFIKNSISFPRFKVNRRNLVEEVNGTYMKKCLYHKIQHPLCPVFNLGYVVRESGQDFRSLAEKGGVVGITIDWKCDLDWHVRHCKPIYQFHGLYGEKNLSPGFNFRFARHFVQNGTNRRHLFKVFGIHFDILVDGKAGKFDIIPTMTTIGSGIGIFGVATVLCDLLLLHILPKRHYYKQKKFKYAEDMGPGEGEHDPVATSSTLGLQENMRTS

[5] = biological target: T5, P2X purinoceptor 1 (Homo sapiens, UniProt P51575)
T5 sequence (P51575 whole entry): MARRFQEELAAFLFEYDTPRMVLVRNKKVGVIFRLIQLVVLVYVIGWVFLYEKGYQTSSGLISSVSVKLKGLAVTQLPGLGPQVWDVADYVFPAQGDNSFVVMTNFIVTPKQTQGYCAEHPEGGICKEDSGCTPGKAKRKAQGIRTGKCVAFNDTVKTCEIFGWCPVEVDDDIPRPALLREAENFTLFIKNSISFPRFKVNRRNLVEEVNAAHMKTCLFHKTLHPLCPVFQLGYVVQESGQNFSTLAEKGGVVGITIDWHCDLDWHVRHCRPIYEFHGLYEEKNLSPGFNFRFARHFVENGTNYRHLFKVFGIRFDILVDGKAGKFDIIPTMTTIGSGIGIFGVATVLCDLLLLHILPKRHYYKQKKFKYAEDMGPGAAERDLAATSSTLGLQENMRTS

[6] = biological target: T6, P2X purinoceptor 2 (Rattus norvegicus, UniProt P49653)
T6 sequence (P49653 whole entry): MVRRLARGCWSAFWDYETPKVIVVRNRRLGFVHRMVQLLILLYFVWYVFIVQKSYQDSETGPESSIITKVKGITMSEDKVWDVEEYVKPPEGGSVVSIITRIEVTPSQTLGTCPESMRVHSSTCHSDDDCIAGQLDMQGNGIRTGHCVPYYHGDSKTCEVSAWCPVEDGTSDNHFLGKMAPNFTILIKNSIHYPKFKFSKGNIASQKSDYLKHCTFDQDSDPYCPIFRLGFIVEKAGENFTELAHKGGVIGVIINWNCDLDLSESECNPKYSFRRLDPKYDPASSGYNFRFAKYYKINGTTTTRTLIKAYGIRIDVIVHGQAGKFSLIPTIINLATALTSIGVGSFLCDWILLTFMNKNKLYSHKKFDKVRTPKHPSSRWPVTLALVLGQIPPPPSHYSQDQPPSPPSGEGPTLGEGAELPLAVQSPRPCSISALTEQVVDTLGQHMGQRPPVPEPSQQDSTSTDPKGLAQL

SMILES	Ki [1] [µM]	Ki [2] [µM]	Ki [3] [µM]	Ki [4] [µM]	Ki [5] [µM]	Ki [6] [µM]
O=C(Nc1ccc(C(=O)Nc2ccc(C(=O)Nc3ccc(S(=O)(=O)O)c4cc(S(=O)(=O)O)cc(S(=O)(=O)O)c34)cc2)cc1)Nc1ccc(C(=O)Nc2ccc(C(=O)Nc3ccc(S(=O)(=O)O)c4cc(S(=O)(=O)O)cc(S(=O)(=O)O)c34)cc2)cc1 [CAS_5311315]	> 10	1	> 10	1	1	> 10
O=C(Nc1cccc(Nc2ccc(S(=O)(=O)O)c3cc(S(=O)(=O)O)cc(S(=O)(=O)O)c23)c1)Nc1cccc(Nc2ccc(S(=O)(=O)O)c3cc(S(=O)(=O)O)cc(S(=O)(=O)O)c23)c1 [NSC_5311313]		1	> 10	1		> 10
Cc1ccc(C(=O)Nc2ccc(S(=O)(=O)O)c3cc(S(=O)(=O)O)cc(S(=O)(=O)O)c23)cc1NC(=O)c1cccc(NC(=O)Nc2cccc(C(=O)Nc3cc(C(=O)Nc4ccc(S(=O)(=O)O)c5cc(S(=O)(=O)O)cc(S(=O)(=O)O)c45)ccc3C)c2)c1 [suramin]		> 10	5	0.05		> 10
